Experiment [1] deals with 14-3-3 SFN protein / ERα phosphopeptide substrate. Briefly: Fluorescence polarization, 14-3-3 SFN with ERα phosphopeptide substrate. Format: binding. To be noted: SFN with C38 and C96 mutated to serines. The method, then:
We performed a fluorescence polarization screen with our cysteine-reactive covalent ligand libraries to identify 14-3-3 covalent molecular glues that enhance interactions of SFN with phosphopeptide 14-3-3 interacting sequences ERα. This screen was performed with recombinant pure 14-3-3 SFN protein and a 5-FAM- or rhodamine-conjugated ERα phosphopeptide substrate looking for cysteine-reactive covalent ligands that would stabilize 14-3-3 interactions with the phosphopeptide substrate.
A general note: Polarisation of emitted light reports the rotation of a fluorescent probe.

Experiment [2] has as its system SFN / TAZ phosphopeptide substrate. Briefly: Fluorescence polarization, 14-3-3 SFN with TAZ phosphopeptide substrate. Format: binding. To be noted: SFN with C38 and C96 mutated to serines.
For experiment [3], the system named is ERα transcription factor luciferase reporter in T47D breast cancer cells. Description: ERα luciferase reporter activity. It counts as cell-based. From the text: (§1) […]. […] […]. […] […].
On the technique in general: A reporter such as luciferase makes a cellular process visible.

Experiment [4] relates to Hippo pathway transcription factor luciferase reporter in MCF7 breast cancer cells. Briefly: Hippo pathway transcription factor luciferase reporter activity. It counts as cell-based.
Excerpt: as §1

Where [5] appears, read: SFN knockdown, breast cancer cells.

The source of these data is US20240319200A1, “Covalent Molecular Glue Stabilizers and Platform” (The Regents of the University of California, priority 2021, published 2024).

The structures appear in SMILES notation.

With `C=CC(=O)N1CCC2(CCN(Cc3ccccc3)C2)C1` (stereo not drawn) [EN171], in experiment [1], the “EN171-mediated stabilization of 14-3-3 interactions with ERα” value is “significantly attenuated”. Further, the “EN171-mediated stabilization of 14-3-3 interactions with TAZ” value in experiment [2] is listed as “significantly attenuated”. For the same compound, the “EN171-mediated inhibition of ERα transcriptional activity” value in experiment [3] (setting [5]) was “significantly attenuated”. Also, the “Inhibition of ERα luciferase reporter activity” value in experiment [3] (T47D breast cancer cells) is on record as “dose-responsive inhibition”. In experiment [4] (MCF7 breast cancer cells), the “Inhibition of Hippo pathway transcription factor luciferase reporter activity” value was “dose-responsive inhibition”. In addition, the “EN171-mediated inhibition of Hippo pathway transcriptional activity” value in experiment [4] (setting [5]) was “significantly attenuated”.
